In US4279909A, “Antiallergic method” (Fujisawa Pharmaceutical Co., Ltd., priority 1980, dated 1981):
Where a name gives a salt, the structure may show the parent alone.

Key:
histamine = assay: Antagonistic effect on histamine in vitro (isolated guinea-pig ileum); conditions: histamine 1.0 × 10^-7 g/ml
Experimental: (5) Antagonistic effect on histamine in vitro
The ileum was connected to a strain gauge transducer and the contractions were recorded isometrically.

[1] = system: anaphylactic bronchoconstriction; assay: Anaphylactic bronchoconstriction in guinea-pigs sensitized with homologous antiserum; format: in vivo; conditions: Cavia porcellus, iv; guinea-pig; intravenously 30 seconds before antigen
Experimental: (c) Guinea-pig antiserum against egg albumin
Five mg of egg albumin emulsified in 0.5 ml of physiological saline and 0.5 ml of Freund's incomplete adjuvant was used as the antigen.
The emulsion was given subcutaneously in a single dose of 1 ml divided equally (0.25 ml) to the four foot pads of male Hartly strain guinea pigs, each weighing 250 to 300 g. Starting two weeks after dosing with the aforementioned emulsion 0.1% egg albumin emulsified in physiological saline was given subcutaneously in equally divided (0.1 ml) doses of 0.4 ml once a week for 4 weeks to four sites on the backs of the test animals. Blood samples were collected from the carotid artery one week after the last injection, and centrifuged at 3000 r.p.m. at room temperature for 15 minutes. The antisera thus obtained were stored at -20° C.
(4) Anaphylactic bronchoconstriction in guinea-pigs sensitized with homologous antiserum
Male Hartly strain guinea-pigs were sensitized with an intravenous injection of 1 ml of homologous antiserum against egg albumin. And 48 hours later, the animals were immobilized with an intraperitoneal dose of 100 mg/kg of gallamine. The trachea was cannulated for artificial respiration which was performed with a miniature respiratory pump (3 ml/stroke, 60 strokes/minute). […]

Acute toxicity in mouse = conditions: in vivo, po; female mouse, orally, seven days
Experimental: (§1) (6) Acute toxicity in mouse and rat
(§2) Each ten male and female ICR-JCL strain mice and Sprague-Dawley-JCL strain rats were used for each dose.
(§3) Test compound was given to animals in a form of suspension in 0.5% methyl cellose orally. After administration, the incidence of the death was recorded for successive seven days. LD50 values were calculated by the method of Lichfield-Wilcoxon method.

Acute toxicity in rat = conditions: in vivo, po; female rat, orally, seven days
Experimental: as §1, §2, §3

[2] = system: passive cutaneous anaphylaxis (P.C.A.); assay: Antagonism to passive cutaneous anaphylaxis (P.C.A.) in rat sensitized with homologous reaginic antiserum; format: in vivo; conditions: test compound given orally 2 hours and intravenously 5 minutes before antigen
Experimental: (a) Rat reaginic antiserum against egg albumin
One mg of egg albumin emulsified in 0.5 ml of B. pertussisdiphtheria mixed vaccine (Tanabe Seiyaku Company Ltd.) and 0.5 ml of Freund's incomplete adjuvant (Difco) was used as the antigen. The emulsion was given subcutaneously in a single dose of 1 ml divided equally (0.25 ml) to the four foot pads of male Sprague-Dawley JCL strain rats aged 6 weeks, each weighing 170-220 g. Blood samples were collected from the femoral artery 12 days after injection, and centrifuged at 3000 r.p.m. at 4° C. for 15 minutes. The antisera thus obtained were stored at -20° C.
(2) Antagonism to passive cutaneous anaphylaxis (P.C.A.) in rat sensitized with homologous reaginic antiserum
Ten male Sprague-Dawley-JCL strain rats, weighing 290-310 g were used for each dose. The rat reaginic antiserum against egg albumin was used at a dilution 1:4. The animals were sensitized with 0.1 ml of the antiserum injected intracutaneously on the depilated backs of the rats. […] It was further centrifuged at 2000 r.p.m. for 15 minutes and the quantity of the dye in the supernatant solution was determined by colorimetry at 620 mμ. […] The inhibitory effect of test compound was determined from the dye amounts measured in comparison with the control group and the treated group and the ED50 value was calculated according to Litchfield-Wilcoxon method.

P.C.A. reaction = assay: Passive cutaneous anaphylaxis (P.C.A.) in rats sensitized with homologous hyperimmune antiserum; format: in vivo; conditions: iv, rat, intravenously 30 seconds before antigen, read-out: ED50 (inhibitory effect of P.C.A. reaction)
Experimental: (b) Rat hyperimmune antiserum against egg albumin
Male Sprague-Dawley JCL strain rats were injected in the four foot pads with 10 mg of egg albumin emulsified in 0.5 ml of saline and 0.5 ml of Freund's complete adjuvant in divided portions. Seven days later, the animals were injected intramuscularly at three sites on a shaved area of their backs with a total of 5 mg of egg albumin emulsified in 0.5 ml of saline and 0.5 ml of Freund's complete adjuvant. On days 28 to 30, the animals were injected intracutaneously at two sites on the back with 0.2 mg of egg albumin in 0.2 ml of saline. The antiserum was obtained 7 days after the last injection and stored at -20° C.
(3) Passive cutaneous anaphylaxis (P.C.A.) in rats sensitized with homologous hyperimmune antiserum
P.C.A. reaction was performed in male Sprague-Dawley JCL strain rats passively sensitized with homologous hyperimmune antiserum against egg albumin. That is, 0.1 ml of the antiserum was injected into the skin on the back of rats, and 4 hours later 1 ml of mixture of egg albumin 5 mg and Evans' blue 5 mg was injected intravenously. One hour later, the animals were killed and the skin was removed. Evans' blue was then extracted from the sensitized spot with 10 ml of 4:1 mixture of aceton and 2% solution of RBS-25. The quantity of Evans' blue was determined by colorimetry at 620 mμ. The drug was given intravenously 30 seconds before dosing with antigen.

Row | Compound | Percentage inhibition of histamin (histamine; 1.0 × 10^-5 g/ml test compound) [%] | Percentage inhibition of histamin (histamine; 1.6 × 10^-4 g/ml test compound) [%] | Percentage inhibition of histamin (histamine; 4.0 × 10^-5 g/ml test compound) [%] | Percentage inhibition of histamin (histamine; 8.0 × 10^-5 g/ml test compound) [%] | ED50 [1] [mg/kg] | LD50 at 168 h (Acute toxicity in mouse) [mg/kg] | LD50 at 168 h (Acute toxicity in rat) [mg/kg] | ED50 [2] [mg/kg] | ED50 (P.C.A. reaction) [mg/kg]
1 | O=C(Cn1c(=O)sc2ccc(Cl)cc21)N1CCNCC1 [Compound A, 3-(1-piperazinyl)carbonylmethyl-5-chloro-2-benzothiazolinone] | 14 | 82 | 48 | 59 | 56 | 219 | 734 | 50 | 9
2 | O=C(Cn1c(=O)sc2ccc(Cl)cc21)N1CCN(CCO)CC1 [Compound B, 3-[4-(2-hydroxyethyl)-1-piperazinylcarbonylmethyl]-5-chloro-2-benzothiazolinone hydrochloride] | – | – | – | – | – | – | – | – | 28
3 | O=C(Cn1c(=O)sc2ccc(Cl)cc21)N1CCC(O)CC1 [Compound C, 3-(4-hydroxypiperidino)carbonylmethyl-5-chloro-2-benzothiazolinone] | – | – | – | – | – | – | – | – | 32
4 | O=C(O)c1cc(=O)c2c(OCC(O)COc3cccc4oc(C(=O)O)cc(=O)c34)cccc2o1 [Compound D, disodium chromoglycate, reference compound] | 2 | 1 | 4 | – | – | – | – | – | 105
